Columns and labels:
Ehrlich cancer cells [1] = experiment: PGE in Ehrlich tumour tissue and tumour proliferation (i.p.); assay type: in vivo, female C57BL/6 mouse; conditions: 100 mg/kg i.p. every other day, 14th day
Method: Ehrlich cancer cells were transplanted subcutaneously to groups of female C57BL/6 mouse after 9 weeks of birth at a rate of 1×10^6 and while feeding the mice, the present substance, Specimen No. 7, was intraperitoneally administered to the mice every other day from the next day of the transplantation at a rate of 100 mg/kg. On 14th day of the transplantation, the mice were sacrificed with ether to extirpate the tumor tissue. After homogenizing the tumour tissue finely cut by scissors with the addition of 7 ml of methanol per gram of the tumour tissue at a temperature of 0° C., the homogenate was filtered with filter paper to obtain a filtrate. After adding 2 times by volume of chloroform to the filtrate, the mixture was well mixed and left for 30 min at 4° C. Then, the cooled mixture was subjected to the same procedures as in Example 11 to determine the content of PGE in the tumour tissue. The content of PGE in the tumour tissue was larger in the animal transplanted with the cancer cells and administered with the present substance than in the control transplanted with the same cancer cells but not administered with the present substance. This face gives an information concerning the participation of the present substance in the metabolism of PGs.

[2] = system: HeLa S3 cultured cells of human uterine cancer; experiment: PGE in culture medium of human uterine cancer cells; assay type: cell-based; conditions: for Concentration of PGE after culture: 2 days, control 312; for Change of Concentration of PGE during culture: control +120
Method: To each 10 ml of a culture medium prepared by adding 10% bovine foetal serum and one of the present substance, Specimen No. 7, at a concentration of 0 (control), 10, 100, 500, 1,000 or 5,000 μg/ml to Eagle's culture medium and placed in a polystyrene flask of 75 cm^2 in bottom surface, HeLa S3 cultured cells of human uterine cancer were inoculated at a rate of 5×10^5 cells/flask and cultured at 37° C. for 2 days under a mixed atmosphere of 5% by volume of gaseous carbon dioxide and 95% by volume of air. After the incubation was over, the whole cultured medium was centrifugated at a temperature of 4° C. at 1,500 rpm to obtain a supernatant liquid of the cultured medium. The content of PGE in the supernatant liquid was determined by ^3 H-Prostaglandin E Radioimmunoassay Kit.

[3] = system: human dinuclear leukemia J-111 strain; experiment: PGs in culture medium of human leukemia cells; assay type: cell-based; conditions: 50, 500 or 5,000 μg/ml, 7 days
Method: To each 10 ml of a culture medium prepared by adding 10% of bovine foetal serum and one of the present substance, Specimen No. 7, at a concentration of 50, 500 or 5,000 μg/ml to Eagle's culture medium and placed in a polystyrene flask of 75 cm^2 in bottom surface, 5×10^5 cultured cells of human dinuclear leukemia J-111 strain were inoculated and cultured at 37° C. under a mixed atmosphere of 5% by volume of gaseous […] and 95% by volume of air for 7 days. During the cultivation, the culture medium was replaced on the second day and the fourth day with respective fresh ones, and each spent medium was subjected to centrifugation as soon as possible at a temperature of 4° C. at 1,500 rpm to obtain each supernatant liquid of cultured medium. The content of PGE and PGF2-α in each supernatant liquid was determined by ^3 H-Prostaglandin E Radioimmunoassay Kit and ^3 H-Prostaglandin F Radioimmunoassay Kit (manufactured by Clinical assay Co. U.S.A.).

Ehrlich's cancer cell = experiment: PGE in Ehrlich tumour and tumour weight (oral); assay type: in vivo, female C57BL/6 mouse; conditions: 1 g/kg/day oral
Method: Ehrlich's cancer cell were transplanted subcutaneously to groups of female C57BL/6 mouse after 8 weeks of her birth and while feeding the mice, the present substance, Specimen No. 7, was orally administered to each mouse every day at a rate of 1 g/kg/day. On 7th or 14th day of the transplantation, the mice were sacrificed with ether to extirpated the tumour. The tumour was treated by the same procedures as in Example 11 to determine the content of PGE therein. The concentration of PGE in the tumour was larger in the animal transplanted with the cells and administered with the present substance than in the control to which the same cells were transplanted but the present substance was not administered. Further it is observed that the content of PGE decreased in both groups as the time passed, and the rate of decrease was smaller in the group transplanted and administered than in the control group transplanted but not administered. These facts give the information that the present substance participates to the metabolism of PGE.

Ehrlich cancer cells [4] = experiment: PGE in cancer cells and ascites of mouse transplanted with Ehrlich cancer cells; assay type: in vivo, female ICR-JCL mouse; conditions: 200 mg/kg/day i.p., 5 days
Method: To groups of female ICR-JCL mouse after 5 weeks of her birth, Ehrlich cancer cells were intraperitoneally transplanted at a rate of 1×10^6 cells/animal and one of the present substances, Specimen No. 7 was administered intraperitoneally to the mice every day from the next day of transplantation for 5 days at a rate of 200 mg/kg/day. The mice were sacrificed with ether on the 6th day of transplantation, and the ascites were collected. After adding tetrasodium ethylenediamminetetraacetate with 1% by weight of aspirin into the ascites, it was centrifugated for 10 min at 1500 rpm and a temperature of 4° C. to separate the cancer cells and the supernatant liquid. The supernatant liquid was further centrifugated at 4° C. and 3000 rpm for 15 min. The separated cancer cells was washed with Hank's solution, and was subjected to centrifugation 5 times at 800 rpm for each 5 min to remove impurities such as erythrocytes, etc. The thus purified cancer cells of 1×10^8 in number were homogenized at 0° C. after addition of 7 ml of methanol, and the homogenate was filtered with filter paper. After adding 14 ml of chloroform to the filtrate and mixing, the mixture was left for 30 min at a temperature of 4° C. […] The content of PGE in the solution and in the supernatant liquid of the ascites was determined by ^3 H-ProstaglandinE Radioimmunoassay Kit. […]

O=C(O)c1ccc(NC2OC[C@@H](O)[C@H](O)[C@H]2O)cc1 (stereo partly drawn) [Specimen No. 7, Sodium p-aminobenzoate-N--D-xyloside]
Weight of tumour tissue (Ehrlich cancer cells [1]; control 1.30): 0.75 g
Content of PGE in the tumour tissue (Ehrlich cancer cells [1]; control 1.77): 3.98 ng/g
Concentration of PGE after culture ([2]; 10 μg/ml): 40 pg/mL
Change of Concentration of PGE during culture ([2]; 10 μg/ml): -152 pg/mL
Concentration of PGE after culture ([2]; 100 μg/ml): 80 pg/mL
Change of Concentration of PGE during culture ([2]; 100 μg/ml): -112 pg/mL
Concentration of PGE after culture ([2]; 500 μg/ml): 48 pg/mL
Change of Concentration of PGE during culture ([2]; 500 μg/ml): -144 pg/mL
Concentration of PGE after culture ([2]; 1000 μg/ml): 25 pg/mL
Change of Concentration of PGE during culture ([2]; 1000 μg/ml): -167 pg/mL
Concentration of PGE after culture ([2]; 5000 μg/ml): 25 pg/mL
Change of Concentration of PGE during culture ([2]; 5000 μg/ml): -167 pg/mL
rate of decrease of PGE (FIG. 13) [3]: the rate of decrease of PGE was raised as the concentration of the present substance was increased
rate of increase of PGF2-α (FIG. 12) [3]: the rate of increase of PGF2-α was reduced as the concentration of the present substance was increased
Weight of tumour (Ehrlich's cancer cell; 7th day, control 0.09): 0.08 g
Content of PGE in the tumour (Ehrlich's cancer cell; 7th day, control 2.59): 2.80 ng/g
Weight of tumour (Ehrlich's cancer cell; 14th day, control 0.84): 0.67 g
Content of PGE in the tumour (Ehrlich's cancer cell; 14th day, control 1.16): 1.65 ng/g
Content of PGE in supernatant liquid of ascites (Ehrlich cancer cells [4]; control 0.26): 0.12 ng
Content of PGE in 10^8 cells (Ehrlich cancer cells [4]; control 2.36): 3.06 ng
